Data taken from PubChem BioAssay AID248 (DTP/NCI, 2004).
Several values for one entry are separate records, joined by “and”; a condition that tells them apart may be missing. Equal entries are not always repeated. Toxic doses and inconclusive results are not listed. No stated cut-off is given here; in the data, active means T/C of 150% or more; inactive means T/C below 125%. Square brackets hold non-standard residues; d marks the D form. Peptide text beside a SMILES is read from it. * marks the point of attachment. ξ: configuration not given here. Cbz = O=C(OCc1ccccc1)*; ξNle = CCCCC(N)C(=O)O

Tested on: L1210 leukemia ip in BDF1 mice, survival T/C
Experiment: NCI In Vivo Anticancer Drug Screen. Data for tumor model L1210 Leukemia (intraperitoneal) in B6D2F1 (BDF1) mice
Conditions: endpoint: mean survival time, higher = longer survival
Summary of the method: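 Ratio derived from survival: compound-dosed mice over vehicle-dosed mice, all bearing a transplantable tumor.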

[1] = dose: 100.0 mg/kg/injection, schedule: Q04DX003 (ip), vehicle: Klucel (hydroxypropylcellulose) (HPC)
[2] = dose: 200.0 mg/kg/injection, schedule: Q01DX009 (ip), vehicle: Klucel (hydroxypropylcellulose) (HPC)
[3] = dose: 200.0 mg/kg/injection, schedule: Q04DX003 (ip), vehicle: Klucel (hydroxypropylcellulose) (HPC)
[4] = dose: 400.0 mg/kg/injection, schedule: Q01DX009 (ip), vehicle: Klucel (hydroxypropylcellulose) (HPC)
[5] = dose: 400.0 mg/kg/injection, schedule: Q04DX003 (ip), vehicle: Klucel (hydroxypropylcellulose) (HPC)
[6] = dose: 50.0 mg/kg/injection, schedule: Q01DX009 (ip), vehicle: saline with Tween-80
[7] = dose: 100.0 mg/kg/injection, schedule: Q01DX009 (ip), vehicle: saline with Tween-80
[8] = dose: 100.0 mg/kg/injection, schedule: Q04DX003 (ip), vehicle: saline with Tween-80
[9] = dose: 200.0 mg/kg/injection, schedule: Q01DX009 (ip), vehicle: saline with Tween-80
[10] = dose: 200.0 mg/kg/injection, schedule: Q04DX003 (ip), vehicle: saline with Tween-80
[11] = dose: 400.0 mg/kg/injection, schedule: Q01DX009 (ip), vehicle: saline with Tween-80
[12] = dose: 400.0 mg/kg/injection, schedule: Q04DX003 (ip), vehicle: saline with Tween-80
[13] = dose: 100.0 mg/kg/injection, schedule: Q01DX001 (ip), vehicle: saline
[14] = dose: 200.0 mg/kg/injection, schedule: Q01DX001 (ip), vehicle: saline
[15] = dose: 400.0 mg/kg/injection, schedule: Q01DX001 (ip), vehicle: saline
[16] = dose: 100.0 mg/kg/injection, schedule: Q01DX001 (ip), vehicle: saline with Tween-80
[17] = dose: 200.0 mg/kg/injection, schedule: Q01DX001 (ip), vehicle: saline with Tween-80
[18] = dose: 400.0 mg/kg/injection, schedule: Q01DX001 (ip), vehicle: saline with Tween-80

Measured: T/C

CNC/C(Cl)=N/S(=O)(=O)c1ccc(C)cc1
inactive: dose: 12.5 mg/kg/injection, schedule: Q04DX002 (ip), vehicle: other 106 % of control | dose: 25.0 mg/kg/injection, schedule: Q04DX002 (ip), vehicle: other 98 % of control | dose: 50.0 mg/kg/injection, schedule: Q04DX002 (ip), vehicle: other 95 % of control | dose: 50.0 mg/kg/injection, schedule: Q04DX002 (ip), vehicle: saline with Tween-80 96 % of control | dose: 100.0 mg/kg/injection, schedule: Q04DX002 (ip), vehicle: saline with Tween-80 99 % of control | dose: 200.0 mg/kg/injection, schedule: Q04DX002 (ip), vehicle: saline with Tween-80 96 % of control | dose: 400.0 mg/kg/injection, schedule: Q04DX002 (ip), vehicle: saline with Tween-80 108 % of control

NC(N)=N/N=C(\c1ccc(Br)cc1)C1CC1
inactive: dose: 15.0 mg/kg/injection, schedule: Q01DX Z (ip), vehicle: carboxymethylcellulose (CMC) 96 % of control | dose: 30.0 mg/kg/injection, schedule: Q01DX Z (ip), vehicle: carboxymethylcellulose (CMC) 95 % of control | dose: 30.0 mg/kg/injection, schedule: Q01DX Z (oral), vehicle: carboxymethylcellulose (CMC) 100 % of control | dose: 60.0 mg/kg/injection, schedule: Q01DX Z (ip), vehicle: carboxymethylcellulose (CMC) 96 % of control | dose: 60.0 mg/kg/injection, schedule: Q01DX Z (oral), vehicle: carboxymethylcellulose (CMC) 115 % of control | dose: 120.0 mg/kg/injection, schedule: Q01DX Z (oral), vehicle: carboxymethylcellulose (CMC) 107 % of control and 121 % of control | dose: 240.0 mg/kg/injection, schedule: Q01DX Z (oral), vehicle: carboxymethylcellulose (CMC) 102 % of control and 111 % of control

O=C(Cl)C1CC2c3ccccc3C1([N+](=O)[O-])c1ccccc12 (centres undefined)
inactive: dose: 50.0 mg/kg/injection, schedule: Q01DX009 (ip), vehicle: Klucel (hydroxypropylcellulose) (HPC) 109 % of control | dose: 100.0 mg/kg/injection, schedule: Q01DX009 (ip), vehicle: Klucel (hydroxypropylcellulose) (HPC) 102 % of control | [1] 104 % of control | [2] 112 % of control and 91 % of control | [3] 104 % of control | [4] 101 % of control | [5] 98 % of control

O=C(CCc1ccccc1)NC1CCCCC1
inactive: dose: 12.5 mg/kg/injection, schedule: Q01DX001 (ip), vehicle: Klucel (hydroxypropylcellulose) (HPC) 104 % of control | dose: 12.5 mg/kg/injection, schedule: Q04DX003 (ip), vehicle: saline 88 % of control | dose: 25.0 mg/kg/injection, schedule: Q01DX001 (ip), vehicle: Klucel (hydroxypropylcellulose) (HPC) 104 % of control | dose: 25.0 mg/kg/injection, schedule: Q04DX003 (ip), vehicle: saline 88 % of control | dose: 50.0 mg/kg/injection, schedule: Q01DX001 (ip), vehicle: Klucel (hydroxypropylcellulose) (HPC) 98 % of control | dose: 50.0 mg/kg/injection, schedule: Q04DX003 (ip), vehicle: saline 93 % of control

CCN(CC)c1ccc(NC(=O)Nc2ccccc2OC)cc1
inactive: [6] 103 % of control | [7] 93 % of control and 101 % of control | [8] 103 % of control | [9] 101 % of control | [10] 97 % of control | [11] 95 % of control | [12] 96 % of control

COc1ccc(CC(N)C(=O)OC(C)C)cc1N(CCCl)CCCl (centres undefined)
inactive: dose: 1.5 mg/kg/injection, schedule: Q01DX001 (ip), vehicle: saline 108 % of control | dose: 3.0 mg/kg/injection, schedule: Q01DX001 (ip), vehicle: saline 113 % of control | dose: 6.0 mg/kg/injection, schedule: Q01DX001 (ip), vehicle: saline 97 % of control

Cc1cnc2c(N)[nH]nc2n1
inactive: [1] 106 % of control | [2] 104 % of control | [3] 96 % of control | [4] 100 % of control | [5] 102 % of control

O=C(NNc1ccccc1)NC1OCC(O)C(O)C1O (centres undefined)
inactive: dose: 100.0 mg/kg/injection, schedule: Q01DX009 (ip), vehicle: saline 92 % of control | dose: 100.0 mg/kg/injection, schedule: Q04DX003 (ip), vehicle: water 97 % of control | dose: 200.0 mg/kg/injection, schedule: Q01DX009 (ip), vehicle: saline 92 % of control | dose: 200.0 mg/kg/injection, schedule: Q04DX003 (ip), vehicle: water 97 % of control | dose: 400.0 mg/kg/injection, schedule: Q01DX009 (ip), vehicle: saline 93 % of control | dose: 400.0 mg/kg/injection, schedule: Q04DX003 (ip), vehicle: water 97 % of control

OCCOCCOCCOCCO
inactive: [13] 109 % of control | [14] 105 % of control | [15] 100 % of control

O=C(C[n+]1ccccc1)c1cn(Cc2ccccc2)c2ccccc12
inactive: dose: 75.0 mg/kg/injection, schedule: Q01DX001 (ip), vehicle: other 98 % of control | dose: 150.0 mg/kg/injection, schedule: Q01DX001 (ip), vehicle: other 97 % of control

CN(C)/N=C/c1ccc(-c2ccccc2)cc1
inactive: [7] 95 % of control | [9] 111 % of control | [11] 102 % of control

CCCCC#CC(=O)OCCCC
inactive: dose: 100.0 mg/kg/injection, schedule: Q04DX002 (ip), vehicle: saline 94 % of control | dose: 200.0 mg/kg/injection, schedule: Q04DX002 (ip), vehicle: saline 97 % of control | dose: 400.0 mg/kg/injection, schedule: Q04DX002 (ip), vehicle: saline 102 % of control

CCCCCCCCC(CCc1ccccc1)CCc1ccccc1
inactive: [16] 93 % of control | [17] 93 % of control | [18] 96 % of control

CCOC(=O)c1cc(OC)c[nH]1
inactive: dose: 50.0 mg/kg/injection, schedule: Q01DX001 (ip), vehicle: saline 100 % of control | [13] 94 % of control | [14] 88 % of control | [15] 105 % of control

C=C(NC(C)=O)C(=O)OC
inactive: dose: 75.0 mg/kg/injection, schedule: Q04DX003 (ip), vehicle: saline 102 % of control | dose: 150.0 mg/kg/injection, schedule: Q04DX003 (ip), vehicle: saline 100 % of control | dose: 300.0 mg/kg/injection, schedule: Q04DX003 (ip), vehicle: saline 97 % of control

CNc1ccc(N=Nc2ccncc2C)cc1C
inactive: [8] 102 % of control | [10] 96 % of control | [12] 96 % of control

Cl/C(=N\Nc1ccccc1)c1ccccc1
inactive: dose: 3.52 mg/kg/injection, schedule: Q01DX009 (ip), vehicle: saline sonified 100 % of control | dose: 5.28 mg/kg/injection, schedule: Q01DX009 (ip), vehicle: saline sonified 105 % of control | dose: 7.5 mg/kg/injection, schedule: Q01DX001 (ip), vehicle: Klucel (hydroxypropylcellulose) (HPC) 98 % of control | dose: 8.0 mg/kg/injection, schedule: Q01DX009 (ip), vehicle: saline sonified 100 % of control | dose: 12.0 mg/kg/injection, schedule: Q01DX009 (ip), vehicle: saline sonified 108 % of control | dose: 15.0 mg/kg/injection, schedule: Q01DX001 (ip), vehicle: Klucel (hydroxypropylcellulose) (HPC) 105 % of control | dose: 15.0 mg/kg/injection, schedule: Q01DX009 (ip), vehicle: saline sonified 111 % of control | dose: 30.0 mg/kg/injection, schedule: Q01DX001 (ip), vehicle: Klucel (hydroxypropylcellulose) (HPC) 105 % of control | dose: 30.0 mg/kg/injection, schedule: Q01DX009 (ip), vehicle: saline sonified 118 % of control

COc1c(C(=O)Nc2ccc(C3=NCCN3)cc2)cccc1C(=O)Nc1ccc(C2=NCCN2)cc1
inactive: dose: 15.0 mg/kg/injection, schedule: Q01DX Z (ip), vehicle: saline 95 % of control | dose: 30.0 mg/kg/injection, schedule: Q01DX Z (ip), vehicle: saline 101 % of control

CC(C)N(C)/N=N/N(C)C(C)C
inactive: [16] 101 % of control | [17] 103 % of control | [18] 117 % of control

CCCCC(NC(=O)OCc1ccccc1)C(=O)NCC(=O)OCC (centres undefined) (Cbz-[ξNle]-Gly-OEt)
inactive: [6] 97 % of control | [7] 97 % of control | [9] 104 % of control
